Test results from patent publication US9029325B2, “Amylin analogues and pharmaceutical compositions thereof” (Novo Nordisk A/S, priority 2011, dated 2015).
Like-named read-outs stand apart in the source and are kept apart here. Starred links: 1 amine or outer side, 2 acyl side, 3 side chain; linkers in the order of their positions; H or OH if unused. Positions of bridges follow the written chain, without caps; N, C: chain ends. Residues, ends and D or L forms follow the SMILES beside them. Groups on a side chain read outwards from the residue. *: point of attachment. C20 diacid = O=C(O)CCCCCCCCCCCCCCCCCCC(=O)*; γGlu = O=C(O)[C@H](CCC(=O)[*:2])N[*:1]

What was measured:
[1] = target: T1, rat calcitonin (a) receptor (Rattus norvegicus, UniProt P32214); experiment: Assay (II)b functional rat calcitonin receptor cAMP FlashPlate assay; assay type: cell-based; conditions: Table 11; read-out: CTa receptor rat EC50
T1 construct: expressed in transfected cells; host or cells: BHK tk'ts 13 (transient, FuGENE 6)
T1 sequence (P32214 25-479 isoform P32214-2 limits assumed): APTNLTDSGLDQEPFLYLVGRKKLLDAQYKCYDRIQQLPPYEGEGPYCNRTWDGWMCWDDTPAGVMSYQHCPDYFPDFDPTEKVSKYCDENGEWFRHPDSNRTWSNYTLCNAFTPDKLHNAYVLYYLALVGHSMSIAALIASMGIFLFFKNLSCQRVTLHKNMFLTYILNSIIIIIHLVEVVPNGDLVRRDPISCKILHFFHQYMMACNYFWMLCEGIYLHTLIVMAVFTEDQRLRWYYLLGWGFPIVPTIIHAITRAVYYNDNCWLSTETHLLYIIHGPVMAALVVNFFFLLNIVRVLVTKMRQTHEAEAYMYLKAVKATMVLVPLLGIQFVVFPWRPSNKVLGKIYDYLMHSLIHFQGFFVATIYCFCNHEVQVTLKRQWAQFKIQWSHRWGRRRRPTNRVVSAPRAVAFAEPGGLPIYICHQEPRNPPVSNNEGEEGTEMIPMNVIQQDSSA
Description: (§1) Activation of calcitonin and amylin (coexpression of calcitonin receptor and receptor activity modifying proteins (RAMP)) receptors lead to increased intracellular concentrations of cAMP. In order to quantify the cAMP levels in transiently transfected cells the Adenylyl Cyclase Activation FlashPlate® Assay from Perkin Elmer was used. The basic principle of the FlashPlate® Assay is a competition between radioactive and non-radioactive cAMP generated by the cells for a fixed number of binding sites.
(§2) BHK tk′ts 13 cells were transiently transfected with either rat calcitonin (a) receptor or amylin 3 (a) receptor (rat calcitonin(a) receptor+ rat RAMP3) using FuGENE® 6 (Roche), according to the manufacturers recommendations.
(§3) 24 hours after transient transfection the cells (rat calcitonin(a)—or rat amylin 3(a)—receptor cells) were added (100.000 cells/well) to the 96 well FlashPlates® with samples or standard in FlashPlate stimulation buffer with IBMX and incubated for 30 min. Detection mix was created according to manufacturers protocol and scintillation measured after 3 h of incubation on TopCounter™ (Packard).

[2] = target: T2, human amylin receptor (amylin 3(a) receptor: human calcitonin receptor + RAMP-3) (Homo sapiens, UniProt O60896+P30988); experiment: Assay (II)a functional human amylin receptor CRE-luciferase assay; assay type: cell-based; conditions: Table 11
T2 construct: expressed in transfected cells
T2 sequence (P30988 25-474): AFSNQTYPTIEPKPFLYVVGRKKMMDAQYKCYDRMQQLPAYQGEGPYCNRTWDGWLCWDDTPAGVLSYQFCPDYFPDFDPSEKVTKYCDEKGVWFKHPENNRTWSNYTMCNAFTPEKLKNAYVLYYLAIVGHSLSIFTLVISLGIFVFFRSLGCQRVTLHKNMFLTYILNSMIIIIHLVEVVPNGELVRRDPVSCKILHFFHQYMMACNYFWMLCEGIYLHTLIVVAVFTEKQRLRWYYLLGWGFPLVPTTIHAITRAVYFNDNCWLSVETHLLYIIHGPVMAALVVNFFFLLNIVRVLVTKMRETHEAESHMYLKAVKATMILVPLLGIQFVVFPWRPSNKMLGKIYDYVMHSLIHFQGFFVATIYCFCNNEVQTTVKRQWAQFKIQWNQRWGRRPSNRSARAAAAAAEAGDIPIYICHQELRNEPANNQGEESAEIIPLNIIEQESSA
T2 sequence (O60896 24-148 partner): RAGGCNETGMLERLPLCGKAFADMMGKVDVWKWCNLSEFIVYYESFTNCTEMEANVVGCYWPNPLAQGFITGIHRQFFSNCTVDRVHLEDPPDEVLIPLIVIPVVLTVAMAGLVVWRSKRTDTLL
Description: (§4) Activation of calcitonin and amylin (coexpression of calcitonin receptor and receptor activity modifying proteins (RAMP)) receptors lead to increased intracellular concentrations of cAMP. Consequently, transcription is activated by promoters containing multiple copies of the cAMP response element (CRE). It is thus possible to measure amylin activity by the use of a CRE luciferase reporter gene introduced into BHK cells also expressing calcitonin or amylin receptors.
(§5) A BHK570 cell line was stably transfected with the human calcitonin receptor and a CRE-responsive luciferase reporter gene. The cell line was further transfected with RAMP-3, using standard methods. This turns the calcitonin receptor into an amylin 3(a) receptor. Methotrexate, Neomycin, and Hygromycin are selection markers for luciferase, the calcitonin receptor, and RAMP-3, respectively.
(§6) To perform activity assays, BHK calcitonin (a) receptor- or amylin 3(a)-receptor/CRE-luc cells were seeded in white 96 well culture plates at a density of about 20.000 cells/well. […] After incubation overnight at 37° C. and 5% CO2, the growth medium was replaced by 50 μl/well assay medium (DMEM (without phenol red), Glutamax™, 10% FBS, and 10 mM Hepes, pH 7.4). Further, 50 μl/well of standard or sample in assay buffer were added. […] Finally, luminescence was measured on a TopCounter (Packard) in SPC (single photon counting) mode.

[3] = Assay (IV) determination of solubility; assay type: physicochemical
Experimental: The polypeptide was dissolved in water at −500 nmol/ml and mixed 1:1 with a series of buffers (100 mM glycylglycine pH 3.0, 100 mM glycylglycine pH 4.0, 100 mM glycylglycine pH 5.0, 100 mM bistrispropane pH 6.0, 100 mM bistrispropane pH 6.5, 100 mM bistrispropane pH 7.0, 100 mM bistrispropane pH 7.5, 100 mM bistrispropane pH 8.0). After 18 hours at room temperature the samples were centrifuged and the polypeptide concentration determined by UPLC.

[4] = target: T3, human calcitonin receptor (CTa receptor) (Homo sapiens, UniProt P30988); experiment: Assay (II)a functional human calcitonin receptor CRE-luciferase assay; assay type: cell-based; conditions: Table 11
T3 construct: expressed in transfected cells
T3 sequence (P30988 25-474): T2 sequence (P30988 25-474)
Description: as §4, §5, §6

[5] = Assay (I) efficacy testing on appetite (food intake), ad libitum fed rat model; assay type: in vivo, Sprague Dawley (SD) rats; conditions: 3 nmol/kg
Procedure, shortened: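 Ad libitum fed SD rats (200-250 g) on a reversed light cycle, housed individually, received a single 0.01-3 mg/kg dose ip, po or sc just before lights-off. Individual food intake recorded hourly for 7 h, then at 24 h and sometimes 48 h, versus vehicle; Grubbs outliers excluded.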

[6] = target: T4, rat amylin 3(a) receptor (rat calcitonin(a) receptor + rat RAMP3) (Rattus norvegicus, UniProt P32214+Q9JJ73); experiment: Assay (II)b functional rat amylin receptor cAMP FlashPlate assay; assay type: cell-based; conditions: Table 11
T4 construct: expressed in transfected cells; host or cells: BHK tk'ts 13 (transient, FuGENE 6)
T4 sequence (P32214 25-479 isoform P32214-2 limits assumed): T1 sequence (P32214 25-479 isoform P32214-2 limits assumed)
T4 sequence (Q9JJ73 23-147 partner): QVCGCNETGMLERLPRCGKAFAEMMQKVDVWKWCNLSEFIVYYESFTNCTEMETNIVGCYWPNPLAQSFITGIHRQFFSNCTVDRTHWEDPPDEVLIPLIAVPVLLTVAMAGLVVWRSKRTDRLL
Description: as §1, §2, §3

With `CC[C@H](C)[C@H](NC(=O)[C@@H]1CCCN1C(=O)CNC(=O)[C@H](Cc1ccccc1)NC(=O)[C@H](CC(N)=O)NC(=O)[C@H](CC(N)=O)NC(=O)[C@H](CO)NC(=O)[C@H](CO)NC(=O)[C@H](Cc1c[nH]cn1)NC(=O)[C@H](Cc1c[nH]cn1)NC(=O)[C@H](CC(C)C)NC(=O)[C@H](Cc1ccccc1)NC(=O)[C@H](CCC(=O)O)NC(=O)[C@H](C)NC(=O)[C@H](CC(C)C)NC(=O)[C@H](CCCNC(=N)N)NC(=O)[C@H](CCC(N)=O)NC(=O)[C@@H](NC(=O)[C@H](C)NC(=O)[C@@H]1CSSC[C@H](NC(=O)[C@@H](N)CCCCNC(=O)CC[C@H](NC(=O)CCCCCCCCCCCCCCCCCCC(=O)O)C(=O)O)C(=O)N[C@@H](CC(N)=O)C(=O)N[C@@H]([C@@H](C)O)C(=O)N[C@@H](C)C(=O)N[C@@H]([C@@H](C)O)C(=O)N1)[C@@H](C)O)C(=O)N[C@@H](CC(C)C)C(=O)N1CCC[C@H]1C(=O)N1CCC[C@H]1C(=O)N[C@H](C(=O)N[C@@H](CC(N)=O)C(=O)N[C@H](C(=O)NCC(=O)N[C@@H](CO)C(=O)N[C@@H](Cc1c[nH]cn1)C(=O)N[C@H](C(=O)N[C@@H](Cc1ccc(O)cc1)C(N)=O)[C@@H](C)O)C(C)C)[C@@H](C)O` [compound 87] (H-K([γGlu-C20 diacid])CNTATCATQRLAEFLHHSSNNFGPILPPTNVGSHTY-NH2; disulfide 2-7 (inferred); C-terminus assumed) the EC50 [1] was 0.437 nM, the EC50 [2] was 0.142 nM and the solubility at 18 h ([3]; pH 3.0, read-out: Solubility (μM) pH 3.0) was greater than 200 µM. The solubility at 18 h ([3]; pH 4.0, read-out: Solubility (μM) pH 4.0) was greater than 200 µM, the solubility at 18 h ([3]; pH 5.0, read-out: Solubility (μM) pH 5.0) was greater than 200 µM and the solubility at 18 h ([3]; pH 6.0, read-out: Solubility (μM) pH 6.0) was greater than 200 µM. The solubility at 18 h ([3]; pH 6.5, read-out: Solubility (μM) pH 6.5) was greater than 200 µM, the solubility at 18 h ([3]; pH 7.0, read-out: Solubility (μM) pH 7.0) was greater than 200 µM and the solubility at 18 h ([3]; pH 7.5, read-out: Solubility (μM) pH 7.5) was greater than 200 µM. The solubility at 18 h ([3]; pH 8.0, read-out: Solubility (μM) pH 8.0) was greater than 200 µM, the EC50 [4] was 0.228 nM and the “Food intake reduction 0-24 h 3 nmol/kg (%)” value ([5]; 0-24 h) was 66%. The “Food intake reduction 24-48 h 3 nmol/kg (%)” value ([5]; 24-48 h) was 47% and the EC50 [6] was 0.106 nM.
